From ChEMBL document CHEMBL5465560, “Selectivity Literature for EUbOPEN Chemogenomic Library” (2024)
One block for each compound: values may come before it.

Experiments:
[1] = target: T1, Ephrin type-A receptor 3 (Homo sapiens) (UniProt P29320); assay: Selectivity interaction (KinomeScan (DiscoverX)) EUB0000655a EPHA3; settings: at 10 µM
T1 sequence (whole entry): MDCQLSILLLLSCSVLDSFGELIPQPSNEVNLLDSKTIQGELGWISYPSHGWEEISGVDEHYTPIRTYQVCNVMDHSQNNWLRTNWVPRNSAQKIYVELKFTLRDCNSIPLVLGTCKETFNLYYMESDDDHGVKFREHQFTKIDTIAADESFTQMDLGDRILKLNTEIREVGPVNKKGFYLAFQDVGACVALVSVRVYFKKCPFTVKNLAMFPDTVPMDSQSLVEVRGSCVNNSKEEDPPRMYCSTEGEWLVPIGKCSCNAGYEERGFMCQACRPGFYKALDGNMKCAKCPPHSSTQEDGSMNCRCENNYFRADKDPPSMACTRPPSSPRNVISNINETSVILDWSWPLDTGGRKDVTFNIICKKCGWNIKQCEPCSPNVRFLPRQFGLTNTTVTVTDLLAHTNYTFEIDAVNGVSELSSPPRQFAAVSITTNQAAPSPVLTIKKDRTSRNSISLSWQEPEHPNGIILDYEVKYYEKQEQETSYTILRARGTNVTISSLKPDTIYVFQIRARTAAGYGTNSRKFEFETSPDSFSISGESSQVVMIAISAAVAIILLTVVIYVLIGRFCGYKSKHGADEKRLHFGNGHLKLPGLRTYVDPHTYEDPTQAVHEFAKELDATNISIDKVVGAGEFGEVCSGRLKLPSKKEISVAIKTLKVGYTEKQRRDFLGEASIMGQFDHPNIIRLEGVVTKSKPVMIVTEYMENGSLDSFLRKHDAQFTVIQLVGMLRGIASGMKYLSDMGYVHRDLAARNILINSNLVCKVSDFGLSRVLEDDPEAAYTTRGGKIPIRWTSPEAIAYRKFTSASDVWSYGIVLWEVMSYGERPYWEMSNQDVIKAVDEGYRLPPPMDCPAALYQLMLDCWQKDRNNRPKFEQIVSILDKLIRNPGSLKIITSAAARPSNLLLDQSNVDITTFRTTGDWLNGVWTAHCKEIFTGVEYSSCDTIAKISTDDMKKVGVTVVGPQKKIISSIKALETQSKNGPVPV

[2] = target: Serine/threonine-protein kinase 38 (Homo sapiens) (UniProt Q15208); assay: Selectivity interaction (KinomeScan (DiscoverX)) EUB0000045b STK38
[3] = target: Rho-associated protein kinase 1 (Homo sapiens) (UniProt Q13464); assay: Selectivity interaction (KinomeScan (DiscoverX)) EUB0000595a ROCK1; settings: at 10 µM
[4] = target: N-lysine methyltransferase SMYD2 (Homo sapiens) (UniProt Q9NRG4); settings: at 10 µM
[5] = target: Histone-lysine N-methyltransferase SUV39H2 (Homo sapiens) (UniProt Q9H5I1); settings: at 1 µM
[6] = target: Epidermal growth factor receptor (Homo sapiens, UniProt P00533); assay: Selectivity interaction (Kinase panel (Invitrogen)) EUB0000639a EGFR; settings: at 200 nM
[7] = target: Histone-lysine N-methyltransferase, H3 lysine-79 specific (Homo sapiens, UniProt Q8TEK3); assay: Selectivity interaction (Transferase panel (protein, RNA, and DNA methyltransferases. and EP300 (acetyltransferase))) EUB0000270b DOT1L
[8] = target: T2, Dual serine/threonine and tyrosine protein kinase (Homo sapiens) (UniProt Q6XUX3); assay: Selectivity interaction (KinomeScan (DiscoverX)) EUB0000229b DSTYK; settings: at 10 µM
T2 sequence (whole entry): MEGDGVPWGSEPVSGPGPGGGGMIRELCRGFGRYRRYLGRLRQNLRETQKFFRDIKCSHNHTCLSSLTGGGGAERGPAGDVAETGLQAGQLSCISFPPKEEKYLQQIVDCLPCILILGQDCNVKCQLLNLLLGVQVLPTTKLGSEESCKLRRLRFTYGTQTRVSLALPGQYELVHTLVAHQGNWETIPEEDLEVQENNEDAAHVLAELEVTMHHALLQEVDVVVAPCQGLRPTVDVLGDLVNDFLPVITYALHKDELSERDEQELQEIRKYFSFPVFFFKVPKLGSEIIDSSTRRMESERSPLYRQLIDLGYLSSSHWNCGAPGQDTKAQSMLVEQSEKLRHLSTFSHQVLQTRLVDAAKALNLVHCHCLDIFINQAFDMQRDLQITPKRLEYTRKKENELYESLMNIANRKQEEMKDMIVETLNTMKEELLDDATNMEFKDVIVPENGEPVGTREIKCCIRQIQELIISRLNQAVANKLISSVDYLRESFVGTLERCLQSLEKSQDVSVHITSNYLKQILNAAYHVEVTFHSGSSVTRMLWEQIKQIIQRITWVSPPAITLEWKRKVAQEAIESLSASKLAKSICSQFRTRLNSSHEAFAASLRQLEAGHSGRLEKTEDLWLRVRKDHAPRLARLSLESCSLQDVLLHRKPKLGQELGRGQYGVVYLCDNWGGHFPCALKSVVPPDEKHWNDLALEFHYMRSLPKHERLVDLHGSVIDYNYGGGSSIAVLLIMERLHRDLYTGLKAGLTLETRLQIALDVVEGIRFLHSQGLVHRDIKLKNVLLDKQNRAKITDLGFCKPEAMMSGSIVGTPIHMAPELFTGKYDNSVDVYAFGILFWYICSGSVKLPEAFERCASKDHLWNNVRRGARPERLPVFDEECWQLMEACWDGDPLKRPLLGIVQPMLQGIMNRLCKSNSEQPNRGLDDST

[9] = target: Serine/threonine-protein kinase/endoribonuclease IRE1 (Homo sapiens) (UniProt O75460); assay: Selectivity interaction (KinomeScan (DiscoverX)) EUB0000229b ERN1; settings: at 10 µM
[10] = target: SRSF protein kinase 2 (Homo sapiens) (UniProt P78362); assay: Selectivity interaction (ProQinase) EUB0000171b SRPK2
Insulin receptor = Insulin receptor (Homo sapiens, UniProt P06213); assay: Selectivity interaction (Kinase panel (Z-LYTE Assay)) EUB0001632a INSR; settings: at 10 µM
[11] = target: TGF-beta receptor type-2 (Homo sapiens) (UniProt P37173); assay: Selectivity interaction (LanthaScreen Eu Kinase Binding Assay) EUB0001632a TGFBR2; settings: at 10 µM
Chain of TGF-beta receptor type-2 (Homo sapiens) (P37173 whole entry): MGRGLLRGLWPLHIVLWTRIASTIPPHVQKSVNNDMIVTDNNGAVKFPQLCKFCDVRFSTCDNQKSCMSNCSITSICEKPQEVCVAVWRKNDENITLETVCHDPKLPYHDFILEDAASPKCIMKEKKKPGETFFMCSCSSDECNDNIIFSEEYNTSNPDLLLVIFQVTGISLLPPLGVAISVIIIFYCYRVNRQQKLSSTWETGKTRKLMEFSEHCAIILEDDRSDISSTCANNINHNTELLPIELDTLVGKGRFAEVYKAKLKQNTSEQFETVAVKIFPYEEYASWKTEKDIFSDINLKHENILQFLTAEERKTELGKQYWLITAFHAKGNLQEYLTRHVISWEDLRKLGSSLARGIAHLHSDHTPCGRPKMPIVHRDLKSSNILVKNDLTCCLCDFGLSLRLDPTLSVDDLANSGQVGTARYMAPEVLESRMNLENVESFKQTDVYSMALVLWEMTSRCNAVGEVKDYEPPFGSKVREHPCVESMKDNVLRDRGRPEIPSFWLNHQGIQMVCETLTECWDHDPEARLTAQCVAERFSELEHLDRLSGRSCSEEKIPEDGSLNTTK

Chain of SRSF protein kinase 2 (Homo sapiens) (P78362 whole entry, looked up): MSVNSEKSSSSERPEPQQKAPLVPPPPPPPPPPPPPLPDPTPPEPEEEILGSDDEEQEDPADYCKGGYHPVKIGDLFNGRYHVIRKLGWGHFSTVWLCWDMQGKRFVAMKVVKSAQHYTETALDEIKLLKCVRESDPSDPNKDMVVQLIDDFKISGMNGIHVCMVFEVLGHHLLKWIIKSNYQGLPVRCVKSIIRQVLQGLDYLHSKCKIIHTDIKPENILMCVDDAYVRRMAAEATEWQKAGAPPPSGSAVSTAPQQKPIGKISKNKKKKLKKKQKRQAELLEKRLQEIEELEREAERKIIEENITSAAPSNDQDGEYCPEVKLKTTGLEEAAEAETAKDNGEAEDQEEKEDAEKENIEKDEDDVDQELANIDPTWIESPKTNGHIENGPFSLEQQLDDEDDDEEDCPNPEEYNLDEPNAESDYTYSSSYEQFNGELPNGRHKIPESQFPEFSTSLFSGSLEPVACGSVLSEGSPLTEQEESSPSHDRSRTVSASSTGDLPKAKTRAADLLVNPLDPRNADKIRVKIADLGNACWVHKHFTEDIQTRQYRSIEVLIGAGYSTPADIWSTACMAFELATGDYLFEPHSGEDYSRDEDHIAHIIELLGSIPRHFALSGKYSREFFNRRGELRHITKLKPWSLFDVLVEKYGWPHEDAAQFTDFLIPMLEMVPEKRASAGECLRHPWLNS
Chain of Histone-lysine N-methyltransferase, H3 lysine-79 specific (Q8TEK3 whole entry, looked up): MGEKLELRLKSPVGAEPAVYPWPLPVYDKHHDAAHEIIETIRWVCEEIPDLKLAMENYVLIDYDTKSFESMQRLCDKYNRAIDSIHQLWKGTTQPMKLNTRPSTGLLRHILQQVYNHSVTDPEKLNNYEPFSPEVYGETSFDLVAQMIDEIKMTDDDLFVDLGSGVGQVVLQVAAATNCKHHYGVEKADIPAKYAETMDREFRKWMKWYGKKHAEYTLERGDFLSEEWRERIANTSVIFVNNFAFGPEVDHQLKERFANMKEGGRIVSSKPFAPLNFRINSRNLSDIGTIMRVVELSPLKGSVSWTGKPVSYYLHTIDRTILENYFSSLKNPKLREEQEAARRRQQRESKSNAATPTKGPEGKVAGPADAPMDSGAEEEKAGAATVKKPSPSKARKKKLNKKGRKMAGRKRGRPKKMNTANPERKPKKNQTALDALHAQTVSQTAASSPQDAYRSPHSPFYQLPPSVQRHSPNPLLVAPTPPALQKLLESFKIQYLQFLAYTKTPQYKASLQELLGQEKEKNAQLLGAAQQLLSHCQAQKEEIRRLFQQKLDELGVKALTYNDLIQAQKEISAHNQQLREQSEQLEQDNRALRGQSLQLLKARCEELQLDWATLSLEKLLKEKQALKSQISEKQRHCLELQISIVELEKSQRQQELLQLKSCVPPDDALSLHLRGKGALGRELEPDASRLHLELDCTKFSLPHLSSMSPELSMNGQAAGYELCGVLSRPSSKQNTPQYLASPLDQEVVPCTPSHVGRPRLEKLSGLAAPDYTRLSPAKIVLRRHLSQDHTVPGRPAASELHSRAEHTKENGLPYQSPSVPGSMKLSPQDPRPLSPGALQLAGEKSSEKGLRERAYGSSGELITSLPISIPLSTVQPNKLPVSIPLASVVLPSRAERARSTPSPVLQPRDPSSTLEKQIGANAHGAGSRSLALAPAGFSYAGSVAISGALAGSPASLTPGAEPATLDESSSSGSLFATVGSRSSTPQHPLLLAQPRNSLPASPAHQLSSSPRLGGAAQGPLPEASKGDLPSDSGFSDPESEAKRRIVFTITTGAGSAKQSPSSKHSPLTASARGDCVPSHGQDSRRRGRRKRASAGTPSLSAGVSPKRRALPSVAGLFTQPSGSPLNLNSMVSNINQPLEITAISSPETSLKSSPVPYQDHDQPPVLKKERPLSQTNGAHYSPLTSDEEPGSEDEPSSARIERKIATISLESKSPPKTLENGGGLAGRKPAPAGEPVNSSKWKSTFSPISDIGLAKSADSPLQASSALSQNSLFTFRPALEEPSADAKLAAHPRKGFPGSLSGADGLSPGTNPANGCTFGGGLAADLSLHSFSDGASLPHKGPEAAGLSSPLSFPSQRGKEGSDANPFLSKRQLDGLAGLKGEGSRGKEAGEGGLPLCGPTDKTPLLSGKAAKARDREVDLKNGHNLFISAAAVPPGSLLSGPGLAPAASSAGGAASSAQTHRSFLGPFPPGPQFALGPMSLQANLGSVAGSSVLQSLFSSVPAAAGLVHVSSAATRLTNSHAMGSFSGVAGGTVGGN
Chain of Serine/threonine-protein kinase 38 (Homo sapiens) (Q15208 2-465 limits assumed): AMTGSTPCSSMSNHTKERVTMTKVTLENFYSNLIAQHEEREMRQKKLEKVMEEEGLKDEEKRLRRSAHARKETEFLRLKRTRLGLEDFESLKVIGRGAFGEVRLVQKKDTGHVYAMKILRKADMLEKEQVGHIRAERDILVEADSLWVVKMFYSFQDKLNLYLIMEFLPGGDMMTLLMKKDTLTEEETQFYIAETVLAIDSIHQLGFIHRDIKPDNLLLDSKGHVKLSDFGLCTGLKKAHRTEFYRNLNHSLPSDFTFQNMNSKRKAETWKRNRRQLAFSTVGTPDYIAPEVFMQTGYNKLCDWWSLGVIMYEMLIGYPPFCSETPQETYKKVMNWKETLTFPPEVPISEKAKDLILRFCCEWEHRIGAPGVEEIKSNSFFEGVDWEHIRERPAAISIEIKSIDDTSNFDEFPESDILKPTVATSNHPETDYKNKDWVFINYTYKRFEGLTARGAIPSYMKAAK
Chain of N-lysine methyltransferase SMYD2 (Homo sapiens) (Q9NRG4 whole entry): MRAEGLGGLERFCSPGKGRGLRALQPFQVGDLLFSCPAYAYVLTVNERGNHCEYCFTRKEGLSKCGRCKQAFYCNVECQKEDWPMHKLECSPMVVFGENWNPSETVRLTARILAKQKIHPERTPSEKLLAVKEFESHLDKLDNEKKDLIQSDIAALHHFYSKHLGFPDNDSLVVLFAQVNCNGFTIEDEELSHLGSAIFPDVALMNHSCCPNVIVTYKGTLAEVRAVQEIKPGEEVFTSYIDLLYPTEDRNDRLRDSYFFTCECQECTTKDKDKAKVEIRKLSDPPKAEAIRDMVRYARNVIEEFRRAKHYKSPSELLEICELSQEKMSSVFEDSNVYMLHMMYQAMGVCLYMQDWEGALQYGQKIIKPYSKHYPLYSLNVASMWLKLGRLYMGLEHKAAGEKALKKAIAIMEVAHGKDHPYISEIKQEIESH
Chain of Epidermal growth factor receptor (P00533 whole entry): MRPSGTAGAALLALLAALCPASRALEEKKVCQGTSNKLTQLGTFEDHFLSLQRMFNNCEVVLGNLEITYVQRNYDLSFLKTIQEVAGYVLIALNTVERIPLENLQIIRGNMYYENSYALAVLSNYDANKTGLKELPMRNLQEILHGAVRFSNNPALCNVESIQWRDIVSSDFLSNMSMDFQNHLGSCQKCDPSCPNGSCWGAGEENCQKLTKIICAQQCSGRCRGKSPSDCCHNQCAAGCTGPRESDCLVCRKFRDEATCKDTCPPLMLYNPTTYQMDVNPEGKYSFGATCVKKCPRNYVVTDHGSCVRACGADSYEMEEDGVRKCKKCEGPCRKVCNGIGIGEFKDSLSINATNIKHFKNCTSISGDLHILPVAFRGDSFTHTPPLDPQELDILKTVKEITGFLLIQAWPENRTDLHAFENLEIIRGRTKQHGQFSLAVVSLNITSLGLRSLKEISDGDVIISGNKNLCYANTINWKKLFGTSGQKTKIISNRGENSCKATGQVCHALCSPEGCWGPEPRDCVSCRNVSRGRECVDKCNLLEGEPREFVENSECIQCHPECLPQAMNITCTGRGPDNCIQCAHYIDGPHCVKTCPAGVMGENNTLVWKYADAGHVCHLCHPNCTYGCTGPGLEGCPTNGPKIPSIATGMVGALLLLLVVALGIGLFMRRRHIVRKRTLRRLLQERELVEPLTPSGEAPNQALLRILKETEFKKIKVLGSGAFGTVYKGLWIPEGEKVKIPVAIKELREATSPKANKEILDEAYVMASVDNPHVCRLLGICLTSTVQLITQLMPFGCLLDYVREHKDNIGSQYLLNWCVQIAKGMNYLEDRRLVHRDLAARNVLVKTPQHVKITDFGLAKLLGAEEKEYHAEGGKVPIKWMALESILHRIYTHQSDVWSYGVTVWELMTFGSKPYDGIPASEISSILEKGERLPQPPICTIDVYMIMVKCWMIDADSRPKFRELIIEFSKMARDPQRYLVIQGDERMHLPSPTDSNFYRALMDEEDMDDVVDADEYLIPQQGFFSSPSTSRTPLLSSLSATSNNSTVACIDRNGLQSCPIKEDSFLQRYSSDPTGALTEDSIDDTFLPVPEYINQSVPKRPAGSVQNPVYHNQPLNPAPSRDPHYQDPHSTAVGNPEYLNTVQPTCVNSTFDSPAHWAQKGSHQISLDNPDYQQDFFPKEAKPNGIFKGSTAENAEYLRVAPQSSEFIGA

Structure (SMILES): CN(C)CCOc1ccc(-c2nc(-c3ccncc3)c(-c3ccc4c(c3)CC/C4=N\O)[nH]2)cc1
% of control [1]: 99%

Structure (SMILES): C=CC(=O)Nc1cc(-n2c(=O)ccc3cnc4ccc(-c5ccc(NS(C)(=O)=O)cc5)cc4c32)ccc1C
% of control ([2]; at 1 µM): 100%
% of control ([2]; at 10 µM): 100%

Structure (SMILES): COCC(=O)NC/C=C/c1ccc2ncnc(Nc3ccc(Oc4ccc(C)nc4)c(C)c3)c2c1 [CP-724714]
% of control [3]: 100%

Structure (SMILES): COc1cc(N(C)c2ccnc3ccc(C(F)(F)F)cc23)cc(OC)c1OC
% binding [8]: 82%
% binding [9]: 70%

Next, values leading:

% activity [4]: > 90%
% activity [5]: > 90%
Structure (SMILES): CNCCN1CCC(c2cc(CN(C)C(=O)c3cccc(Oc4ccccc4)c3)ccn2)CC1

% of inhibition [6]: 1.25%
Structure (SMILES): CC[C@@H]1[C@H](F)C(=O)N[C@@H]1COc1nccc2cc(C(N)=O)c(OC)cc12 [ZIMLOVISERTIB]

% activity ([7]; at 1 µM): > 90%
% activity ([7]; at 10 µM): > 80%
Structure (SMILES): Cc1cc(CN)cc(C)c1-c1ncn(C)c1-c1cncn1C

% of control ([10]; at 1 µM): 82%
% of control ([10]; at 5 µM): 75%
Structure (SMILES): C=CC(=O)Nc1cccc(C(=O)Nc2ccc(Nc3cc(-c4[nH]c(SC)nc4C)ccn3)cc2)c1

% of control (Insulin receptor): -1.61%
% of inhibition [11]: -26.6%
Structure (SMILES): Cn1cc(-n2cnc3c(NCc4nc5cc(Cl)c(Cl)cc5[nH]4)nc(N4CCOCC4)nc32)cn1
